{
  "source": "patent US11400104B2",
  "about": "“Skeletal removal of bisphosphonates” (The Regents of the University of California, priority 2016, dated 2022)",
  "key": {"[1]": {"assay": "hydroxyapatite (HAP) binding affinity, relative retention times normalized to RIS", "details": "FIG. 7", "experimental": "FIG. 7 is a bar graph showing hydroxyapatite (HAP) binding affinity of Zoledronate (ZOL), ROX-RIS, 5-FAM-ZOL, and AF647-ZOL. Relative retention times were normalized to RIS.\nHydroxyapatite assays indicate that the FL-BPs generally retain substantial affinity for bone mineral that reflect the affinity of the BP component and to a lesser extent, the affinity of the conjugated fluorophore. Hydroxyapatite (Macro-Prep® Ceramic hydroxyapatite Type II […]) was obtained from Bio-Rad Laboratories, Inc. Hercules, Calif. Accurately weighed hydroxyapatite powder (1.4-1.6 mg) was suspended in a 4 mL clear vial containing the appropriate volume of assay buffer (0.05% (wt/vol) Tween20, 10 μM EDTA and 100 mM HEPES pH=7.4) for 3 hours. Hydroxyapatite was then incubated with increasing amounts of FAM-BP and ROX-BP (0, 25, 50, 100, 200, and 300 μM). Samples were gently shaken for 3 hours at 37° C. in appropriate volume of assay buffer (0.05% (wt/vol) Tween20, 10 μM EDTA and 100 mM HEPES pH=7.4). Subsequent to the equilibrium period, the vials were centrifuged at 10,000 rpm for 5 minutes to separate the solids and the supernatant. 0.3 mL of the supernatant was collected and the equilibrium solution concentration is measured by using Shimadzu UV-VIS spectrometer. For the calibration series, FL-BP probe standards were prepared by serial dilution from the stock solution with the same isotherm buffer to give the range from 0 to 400 μM. Calibration curves were constructed using standard solutions of the target FL-BPs. Fluorescent emission can also be used to calculate the binding parameters. Nonspecific binding was measured with a similar procedure in the absence of hydroxyapatite as control. Binding parameters (Kd and Bmax, represent the equilibrium dissociate constant and maximum number of binding sites, respectively) were calculated using the PRISM program (Graphpad, USA). The binding parameters of each compound was measured in 5 independent experiments. […]"}, "[2]": {"system": "mouse femur trabecular bone", "assay": "micro CT evaluation of mouse femur trabecular structure (anti-resorptive function in vivo)", "details": "IV 184 μM×100 μL; femurs 2 weeks after injection; FIG. 14", "experimental": "FIG. 19A to FIG. 19C present evidence that certain alkylidene bisphosphonates can be used to displace active BPs in vivo in the mouse model. […] FIG. 19B outlines the protocol for the experiments using MHDP to treat C57B16 mice. An ONJ-like lesion was generated by ZOL IV injection into the mouse, followed by extraction of the maxillary first molar. One day prior to the tooth extraction, a group of mice received intra-oral injection of 2 μg MHDP and another group received IV injection of 100 μg MHDP. FIG. 19C presents images of the mouse maxilla.\nThis study determines the anti-resorptive function of FL-BP in vivo, as compared to ZOL. Female B6 mice were injected with 50 μM ZOL (n=6), 50 μM FL-BP (n=6) or 0.9% NaCl vehicle solution (control: n=6) via tail vein. Three weeks later, mice were euthanized and femur and L4/L5 were harvested. After fixed in 10% buffered formalin, bone samples were subjected to micro CT analysis. The anti-resorptive function were quantitatively established by the trabecular bone three-dimensional morphometry (e.g., BV/TV, Tb.N, Tb.Th, TbSp). FL-BPs with minimal or no pharmacological BP function are used.\nMice were IV injected with 0.9% NaCl (vehicle solution), ZOL (184 μM×100 μL=5.0 μg/animal) or AF647-ZOL (184 μM×100 μL=22.0 μg/animal) and femurs were harvested 2 weeks after injection. The micro CT data were compared."}},
  "data": [
    {"smiles": "CC1(C)C(C=CC=CC=C2N(CCCS(=O)(=O)O)c3ccc(S(=O)(=O)O)cc3C2(C)CCCCCC(=O)NCC(O)C[n+]2ccn(CC(O)(P(=O)(O)O)P(=O)(O)O)c2)=[N+](CCCS(=O)(=O)O)c2ccc(S(=O)(=O)O)cc21", "note": "(centres unmarked) [AF647-ZOL]", "values": [
      {"measurement": "influence of the fluorophore on hydroxyapatite affinity", "setting": "[1]", "result": "small reduction"},
      {"measurement": "bone structural parameters", "setting": "[2]", "result": "did not change any of bone structural parameters"}
    ]}
  ]
}
